EC50, IC50 and Kd data for 18 molecules are collected here from ChEMBL document CHEMBL5505952, “Targeting SARS-CoV-2 entry processes: The promising potential and future of host-targeted small-molecule inhibitors” (Eur J Med Chem, 2024).

Assay [1] deals with SARS-CoV-2. Nature of the assay: microbe, parasite or virus in culture. To be noted: Severe acute respiratory syndrome coronavirus 2, USA-WA1/2020, Vero 76, 72 h.
The test system of assay [2] is SARS-CoV-2. Nature of the assay: microbe, parasite or virus in culture. To be noted: Severe acute respiratory syndrome coronavirus 2, Huh-7.
Assay [3] addresses T1, 1-phosphatidylinositol 3-phosphate 5-kinase (Homo sapiens, UniProt Q9Y2I7). Nature of the assay: Inhibition of PIKfyve (unknown origin).
For assay [4], the system named is SARS-CoV-2. In kind it is functional, organism-based. To be noted: Severe acute respiratory syndrome coronavirus 2, Vero C1008, 48 h.
Assay [5] concerns SARS-CoV-2. The experiment in a line: microbe, parasite or virus in culture. The following applies: Severe acute respiratory syndrome coronavirus 2, Calu-3, 48 h.
In assay [6] the test system is SARS-CoV-2. The experiment in a line: microbe, parasite or virus in culture. To be noted: Severe acute respiratory syndrome coronavirus 2, Vero C1008, 24 h.
In assay [7] the test system is SARS-CoV-2. In kind it is functional, organism-based. To be noted: Severe acute respiratory syndrome coronavirus 2, Vero C1008, 72 h.
The subject of assay [8] is SARS-CoV-2. The experiment in a line: Antiviral activity against SARS-CoV-2 WA1/2020 infected in human Calu-3 cells preincubated for 2 hrs followed by viral infection and measured after 48 hrs by microscopy analysis. In kind it is functional, organism-based. The following applies: Severe acute respiratory syndrome coronavirus 2, WA1/2020, Calu-3.
In assay [9] the test system is SARS-CoV-2. In kind it is functional, organism-based. To be noted: Severe acute respiratory syndrome coronavirus 2, Vero C1008, 48 h. This is another data set of the same source.
Assay [10] relates to SARS-CoV-2. Nature of the assay: Antiviral activity against VSV-S pseudotyped SARS-CoV-2 infected in human Calu-3 cells assessed as inhibition of viral growth. In kind it is functional, organism-based. To be noted: Severe acute respiratory syndrome coronavirus 2, Calu-3.
Assay [11] deals with T1, 1-phosphatidylinositol 3-phosphate 5-kinase. Nature of the assay: Binding affinity to N-terminal His-tagged human PIKfyve expressed in Sf9 cells assessed as dissociation constant.
Assay [12] addresses T2, Replicase polyprotein 1ab (Severe acute respiratory syndrome coronavirus 2, UniProt P0DTD1). Nature of the assay: Inhibition of SARS-Cov-2 Main protease by FRET assay.
Assay [13] relates to SARS-CoV-2. In kind it is functional, organism-based. The following applies: Severe acute respiratory syndrome coronavirus 2, Wuhan-Hu-1, Vero C1008.
In another assay the target is Procathepsin L (Homo sapiens, UniProt P07711). The experiment in a line: Inhibition of human recombinant Cathepsin L using Z-Phe-Arg-AMC as substrate incubated for 60 mins by fluorescence spectrophotometric analysis.
The next assay has as its target Neuropilin-1 (Homo sapiens, UniProt O14786). Nature of the assay: Inhibition of [125I]-VEGF-A165 binding to NRP1 (unknown origin) in HUVEC cells. In kind it is cell-based.
Assay [14] has as its system SARS-CoV-2. The experiment in a line: microbe, parasite or virus in culture. To be noted: Severe acute respiratory syndrome coronavirus 2, Vero C1008, 24 h. This is another data set of the same source.
Assay [15] concerns SARS-CoV-2. In kind it is functional, organism-based. The following applies: Severe acute respiratory syndrome coronavirus 2, Huh-7.
In assay [16] the test system is SARS-CoV-2. Nature of the assay: microbe, parasite or virus in culture. The following applies: Severe acute respiratory syndrome coronavirus 2, Huh-7. The source holds these as a separate data set.
Assay [17] has as its target T2, Replicase polyprotein 1ab. The experiment in a line: Inhibition of SARS-CoV-2 MPro expressed in Escherichia coli BL21 (DE3) using Dabcyl-KTSAVLQSGFRKME-Edans as substrate incubated for 1 hr by fluorescence based analysis.
Assay [18] concerns SARS-CoV-2. In kind it is functional, organism-based. The following applies: Severe acute respiratory syndrome coronavirus 2, NRC-03-nhCoV, Vero C1008, 72 h.
Another assay deals with RAW264.7. Nature of the assay: Antiinflammatory activity in mouse RAW264.7 cells assessed as effect on LPS induced IL-12p40 level measured after 24 hrs by RT-qPCR analysis. In kind it is functional, cell-based. The following applies: RAW264.7, 24 h. In general terms: In qPCR the cycle at which signal appears reflects the starting amount.

The term EC50 denotes the concentration that produces a half-maximal response. In general, IC50 refers to the concentration at which inhibition is half-maximal. Usually Kd stands for the free concentration of one partner at which half of the binding sites on the other are occupied at equilibrium, for simple one-to-one binding.

Structures are written as SMILES. Where a SMILES comes first, the peptide text is derived from it. [ ]: non-standard residue; d: D form. The star is where a group is joined. Nle = CCCC[C@H](N)C(=O)O; Cbz = O=C(OCc1ccccc1)*

T1 sequence (Q9Y2I7 whole entry): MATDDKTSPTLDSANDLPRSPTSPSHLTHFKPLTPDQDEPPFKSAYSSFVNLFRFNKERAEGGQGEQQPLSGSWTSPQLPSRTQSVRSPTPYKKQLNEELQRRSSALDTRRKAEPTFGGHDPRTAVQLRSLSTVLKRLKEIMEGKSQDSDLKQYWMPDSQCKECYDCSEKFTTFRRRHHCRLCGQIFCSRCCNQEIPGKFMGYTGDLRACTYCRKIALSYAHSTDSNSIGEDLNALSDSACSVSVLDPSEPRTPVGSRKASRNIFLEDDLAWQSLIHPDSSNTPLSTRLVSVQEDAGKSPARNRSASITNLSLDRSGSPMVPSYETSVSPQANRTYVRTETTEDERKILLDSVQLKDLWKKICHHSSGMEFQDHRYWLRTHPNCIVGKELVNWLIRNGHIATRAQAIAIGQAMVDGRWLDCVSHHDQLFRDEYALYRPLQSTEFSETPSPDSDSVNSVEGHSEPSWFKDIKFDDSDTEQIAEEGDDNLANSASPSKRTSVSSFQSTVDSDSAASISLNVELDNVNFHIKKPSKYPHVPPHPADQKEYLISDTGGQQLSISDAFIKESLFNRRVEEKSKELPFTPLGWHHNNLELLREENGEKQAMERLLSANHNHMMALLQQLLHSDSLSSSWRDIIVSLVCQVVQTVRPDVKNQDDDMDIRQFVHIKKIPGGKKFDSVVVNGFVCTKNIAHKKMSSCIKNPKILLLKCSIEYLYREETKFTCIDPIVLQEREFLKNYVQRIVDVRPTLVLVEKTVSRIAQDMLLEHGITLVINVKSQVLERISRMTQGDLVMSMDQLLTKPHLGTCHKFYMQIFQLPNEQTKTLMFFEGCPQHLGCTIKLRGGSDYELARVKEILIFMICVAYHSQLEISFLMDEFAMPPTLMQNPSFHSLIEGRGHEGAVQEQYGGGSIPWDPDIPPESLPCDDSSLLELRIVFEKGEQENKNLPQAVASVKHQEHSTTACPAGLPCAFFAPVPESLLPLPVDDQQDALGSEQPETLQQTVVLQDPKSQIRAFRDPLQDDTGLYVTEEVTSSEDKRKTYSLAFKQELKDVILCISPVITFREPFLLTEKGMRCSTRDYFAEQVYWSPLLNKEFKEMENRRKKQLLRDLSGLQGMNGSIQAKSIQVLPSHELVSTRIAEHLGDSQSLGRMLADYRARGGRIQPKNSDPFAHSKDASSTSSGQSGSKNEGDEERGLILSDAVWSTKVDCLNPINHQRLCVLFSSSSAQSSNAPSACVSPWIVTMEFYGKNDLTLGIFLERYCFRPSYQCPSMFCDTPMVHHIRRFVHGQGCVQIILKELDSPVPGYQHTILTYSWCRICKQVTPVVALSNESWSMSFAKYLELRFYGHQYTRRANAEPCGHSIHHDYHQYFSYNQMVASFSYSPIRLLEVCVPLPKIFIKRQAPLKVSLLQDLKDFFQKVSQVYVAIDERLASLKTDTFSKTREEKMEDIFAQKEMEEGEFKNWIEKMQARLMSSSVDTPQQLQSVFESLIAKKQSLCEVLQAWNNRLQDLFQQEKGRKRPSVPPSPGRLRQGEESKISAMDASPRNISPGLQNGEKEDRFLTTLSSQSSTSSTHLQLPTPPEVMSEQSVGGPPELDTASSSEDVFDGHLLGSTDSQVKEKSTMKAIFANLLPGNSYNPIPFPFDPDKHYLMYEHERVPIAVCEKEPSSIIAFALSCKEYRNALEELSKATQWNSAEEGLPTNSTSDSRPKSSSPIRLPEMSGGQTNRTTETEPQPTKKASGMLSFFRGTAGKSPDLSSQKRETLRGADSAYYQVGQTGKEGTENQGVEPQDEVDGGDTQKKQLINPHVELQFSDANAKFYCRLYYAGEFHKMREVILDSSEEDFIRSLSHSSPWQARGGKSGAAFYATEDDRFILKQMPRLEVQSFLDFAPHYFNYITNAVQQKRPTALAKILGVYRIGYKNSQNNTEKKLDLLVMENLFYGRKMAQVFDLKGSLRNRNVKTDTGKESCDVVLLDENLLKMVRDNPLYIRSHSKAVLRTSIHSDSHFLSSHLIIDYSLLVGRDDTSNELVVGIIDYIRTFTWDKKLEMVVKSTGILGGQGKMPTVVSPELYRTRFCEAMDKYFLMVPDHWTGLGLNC
Neuropilin-1, sequence (O14786 whole entry): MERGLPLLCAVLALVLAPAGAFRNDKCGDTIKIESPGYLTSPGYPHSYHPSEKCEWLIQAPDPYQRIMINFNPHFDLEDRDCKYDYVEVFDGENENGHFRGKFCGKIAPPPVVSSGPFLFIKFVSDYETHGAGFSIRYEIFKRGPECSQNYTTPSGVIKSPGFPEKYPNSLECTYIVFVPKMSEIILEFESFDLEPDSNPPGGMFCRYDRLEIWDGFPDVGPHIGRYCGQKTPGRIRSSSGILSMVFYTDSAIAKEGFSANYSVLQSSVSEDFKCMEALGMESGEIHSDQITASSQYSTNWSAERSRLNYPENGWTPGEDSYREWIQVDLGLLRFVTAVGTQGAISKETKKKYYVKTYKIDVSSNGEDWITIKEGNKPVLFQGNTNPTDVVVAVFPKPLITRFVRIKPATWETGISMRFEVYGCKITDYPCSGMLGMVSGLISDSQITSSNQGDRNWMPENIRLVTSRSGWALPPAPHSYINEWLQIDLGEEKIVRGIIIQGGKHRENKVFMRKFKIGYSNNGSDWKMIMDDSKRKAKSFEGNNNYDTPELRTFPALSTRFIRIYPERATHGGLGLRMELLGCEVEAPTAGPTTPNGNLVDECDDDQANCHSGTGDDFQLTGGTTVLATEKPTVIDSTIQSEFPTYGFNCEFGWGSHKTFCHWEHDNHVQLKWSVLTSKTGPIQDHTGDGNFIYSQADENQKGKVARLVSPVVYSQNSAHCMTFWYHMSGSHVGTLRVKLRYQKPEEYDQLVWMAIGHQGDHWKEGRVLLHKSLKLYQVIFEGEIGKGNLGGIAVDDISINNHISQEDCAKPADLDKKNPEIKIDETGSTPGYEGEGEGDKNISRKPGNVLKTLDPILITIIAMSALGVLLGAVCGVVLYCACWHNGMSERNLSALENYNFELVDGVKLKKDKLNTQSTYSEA
Procathepsin L, sequence (P07711 whole entry): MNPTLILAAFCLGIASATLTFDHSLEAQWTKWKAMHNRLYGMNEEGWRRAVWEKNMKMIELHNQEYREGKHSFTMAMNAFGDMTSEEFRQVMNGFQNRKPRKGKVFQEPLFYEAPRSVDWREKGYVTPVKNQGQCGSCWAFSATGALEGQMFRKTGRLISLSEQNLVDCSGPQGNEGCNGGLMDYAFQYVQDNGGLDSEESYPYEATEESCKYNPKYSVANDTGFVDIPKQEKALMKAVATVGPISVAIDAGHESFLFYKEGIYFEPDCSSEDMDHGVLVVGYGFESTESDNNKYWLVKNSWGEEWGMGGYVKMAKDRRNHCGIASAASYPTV

Regarding `CCCC[C@@H](C=O)NC(=O)[C@H](CC(C)C)NC(=O)OCc1ccccc1` [CALPEPTIN], the half-maximal effective concentration (EC50) in the assay with SARS-CoV-2 [1] was found to be 1030 nM; in the assay on SARS-CoV-2 [2], 29800 nM.

Turning to `Nc1ncc2c(n1)Cc1c([nH]c3ccc(-c4ccc(F)cc4)cc13)CC2`, the IC50 was found to be 9.3 nM in assay [3] and 73.3 nM in the assay on SARS-CoV-2 [4].

With `C#Cc1cccc(Nc2ncnc3cc(OCCOC)c(OCCOC)cc23)c1` [ERLOTINIB], the EC50 in the assay on SARS-CoV-2 [5] and in the assay on SARS-CoV-2 [6] was above 20000 nM in each case.

Take `CCC(O)(CC)c1ccc2[nH]c3c(c2c1)Cc1nc(N)ncc1CC3`: the results for the half-maximal inhibitory concentration (IC50) (in [3]; in the assay on SARS-CoV-2 [4]) were 1.8 nM and 23.9 nM, respectively.

Take `CCN(CC)CCNC(=O)c1c(C)[nH]c(/C=C2\C(=O)Nc3ccc(F)cc32)c1C` [SUNITINIB]: the figures for the EC50 in the assay with SARS-CoV-2 [5] and in the assay on SARS-CoV-2 [6] were 2900 nM and 2400 nM, respectively.

In the assay on SARS-CoV-2 [7], `COc1ccc(C(=O)Nc2cccc(C(F)(F)F)c2)cc1Nc1nc(-c2cccnc2)c2[nH]ccc2n1` had a half-maximal effective concentration (EC50) of 9.3 nM.

With `CC(=O)N[C@H]1CC(=O)NCCCC[C@@H](C(=O)N[C@@H](CCCNC(=N)N)C(=O)c2nc3ccccc3s2)NC(=O)[C@H](CC(C)C)NC1=O`, half-maximal inhibition in the assay on SARS-CoV-2 [8] (IC50) required 660 nM. Besides, the EC50 in the assay with SARS-CoV-2 [9] was determined as 104 nM; in the assay with SARS-CoV-2 [10], 197 nM.

Regarding `CC[C@@H](C)[C@H](NC(C)=O)C(=O)N[C@@H](CCC(N)=O)C(=O)N[C@@H](Cc1ccccc1)C(=O)N[C@@H](CCCNC(=N)N)C(=O)c1nc2ccccc2s1`, in the assay with SARS-CoV-2 [8], 102 nM corresponded to half-maximal inhibition (IC50). Besides, the EC50 in the assay on SARS-CoV-2 [10] was determined as 3.6 nM.

For `Ic1cccc(/C=N/Nc2nc(N3CCOCC3)nc(N(c3ccccc3)c3ccccc3)n2)c1`, the Kd in assay [11] stood at 32 nM.

As for `N[C@H]1C(=O)N[C@@H]2Cc3ccc(c(Cl)c3)Oc3cc4cc(c3O)Oc3ccc(cc3Cl)[C@@H](O)[C@@H]3NC(=O)[C@H](NC(=O)[C@@H]4NC(=O)[C@@H](NC2=O)c2cc(O)cc(c2)Oc2cc1ccc2O)c1ccc(O)c(c1)-c1c(O)cc(O)cc1[C@@H](C(=O)O)NC3=O` [TEICOPLANIN AGLYCON], the IC50 in assay [12] came to 1460 nM; in the assay with SARS-CoV-2 [13], 2040 nM; at Procathepsin L, 208000 nM.

On Neuropilin-1, `Cc1nc(N2CCOCC2)ncc1-c1cc(=O)[nH]c(Nc2ccccc2)n1` registered an IC50 of 0.598 nM.

`Cn1nc(C(C)(C)C)cc1C(=O)N[C@@H](Cc1cccc(Cl)c1)C(=O)NCC#N` displayed an EC50 in the assay on SARS-CoV-2 [14] of 140 nM.

For `CC(C)[C@H](NC(=O)OCc1ccccc1)C(=O)N[C@H](C=O)Cc1ccccc1` (Cbz-Val-Phe-aldehyde), it took 1560 nM to reach a half-maximal effect in the assay on SARS-CoV-2 [14] (EC50).

Turning to `CC(=O)N[C@@H](CC(C)C)C(=O)N[C@@H](CC(C)C)C(=O)N[C@H](C=O)CCCNC(=N)N`, the results for the EC50 in the assay on SARS-CoV-2 [15] and in the assay with SARS-CoV-2 [16] were 10600 nM and 39300 nM, respectively. This molecule also yielded a 50% inhibitory concentration (IC50) in assay [17] of 127000 nM.

`Cc1ccc(NC(=O)c2cccc(C(F)(F)F)c2)cc1Nc1nc(-c2ccncc2)c2[nH]ccc2n1`: in the assay with SARS-CoV-2 [7], the concentration for a half-maximal effect (EC50) was found to be 12300 nM. For the same molecule, the Kd in assay [11] was above 30000 nM.

In turn, `CCCC[C@@H](C=O)NC(=O)[C@H](CC(C)C)NC(=O)[C@H](CC(C)C)NC(C)=O` (Ac-Leu-Leu-[Nle]-aldehyde) showed an EC50 with SARS-CoV-2 [16] of 3120 nM.

On to `COc1ccccc1/C=N/NC(=N)c1nonc1NCNc1nonc1C(=N)N/N=C/c1ccccc1OC`, for which the midpoint of inhibition in the assay with SARS-CoV-2 [18], the IC50, lay at 19 nM.

For `CCc1c(C)[nH]c2ccc(C(=O)Nc3cncc(-c4ccc(N5C[C@@H](C)O[C@@H](C)C5)nc4)c3)nc12`, the concentration for half-maximal inhibition (IC50) in the assay with RAW264.7 worked out at 2.4 nM.
